US20230286973A1, “PROTEIN SECRETION INHIBITORS” (KEZAR LIFE SCIENCES, priority 2020, published 2023)
pEC50, pIC50: −log10 of the molar value. Where “and” joins values, the source holds several entries; their conditions need not be identical. Equal values may be shown once.

How the values were obtained:
[1] = tested on: PD1-ss+10aa/Gaussia Luciferase; assay: Dox-Induced PD1-ss-Gluc Assay; type: cell-based; details: 24 hr Dox induction; 293FRT/TO cells; read-out: 24 hr Dox Inducible PD1ssGluc 293FRT/TO: Mean IC50
In short: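 Doxycycline-induced expression of a PD1-ss+10aa/Gaussia luciferase reporter is measured in stable Flp-In 293 T-REx cells. Compound dilutions containing doxycycline are added one day after plating and incubated at 37 °C, 5% CO2. Values for unassigned stereocentres refer to stereoisomer mixtures.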

[2] = tested on: TNFα-FL/Gaussia Luciferase; assay: Dox Induced TNFα-FL-Gluc Assay; type: cell-based; details: for pIC50: 24 hr Dox induction, 293FRT/TO cells, read-out: 24 hr Dox Inducible TNFaFLGluc 293FRT/TO: Mean IC50; for 24 hr Dox Inducible TNFaFLGluc 293FRT/TO: TNF/PD1: ratio of TNFaFLGluc IC50 to PD1ssGluc IC50
In short: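 Cells are seeded one day ahead, then treated with compound plus doxycycline at 37 °C, 5% CO2. The stable Flp-In 293 T-REx line expresses full-length TNFα (amino acids 1-233) with Gaussia luciferase fused to its 3′ end, inducibly via T-REx.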

[3] = tested on: HER3-ss+4aa/Gaussia Luciferase; assay: Dox-Induced Her3-ss-Gluc Assay; type: cell-based; details: 24 hr Dox induction; 293FRT/TO cells; read-out: 24 hr Dox Inducible Her3(ss + 4)Gluc 293FRT/TO: Mean IC50
In short: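 Expression of a Gaussia luciferase reporter carrying the HER3 signal sequence plus 4 amino acids is induced by doxycycline in stably transfected Flp-In 293 T-REx cells. Compounds are added with doxycycline at 37° C., 5% CO2. Undefined stereocentres denote stereoisomer mixtures.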

[4] = tested on: IL-2-FL/Gaussia Luciferase; assay: Dox Induced IL2-FL-Gluc Assay; type: cell-based; details: for pIC50: 24 hr Dox induction, 293FRT/TO cells, read-out: 24 hr Dox Inducible IL2FLGluc 293FRT/TO: Mean IC50; for 24 hr Dox Inducible IL2FLGluc 293FRT/TO: IL2/PD1: ratio of IL2FLGluc IC50 to PD1ssGluc IC50
In short: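 Reporter is Gaussia luciferase fused to the 3′ end of full-length IL-2 (aa 1-153), expressed from a doxycycline-inducible T-REx construct in stably selected Flp-In 293 cells. Compounds were co-added with doxycycline and incubated at 37° C, 5% CO2.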

[5] = tested on: multiple myeloma cell line NCI-H929; assay: H929 Cell Viability Assay; type: cell-based, human; details: NCI-H929 cells, Celltiter-Glo
In short: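 Plate the myeloma cells in RPMI 1640 with 10% FBS, add serially diluted compound, incubate for 48 hours at 37° C, then add CellTiter-Glo and read luciferase signal.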

[6] = tested on: multiple myeloma cell line U266B1; assay: U266 Cell Viability Assay; type: cell-based, human; details: U266B1 cells, Celltiter-Glo
In short: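 48 h treatment, 37° C./5% CO2, RPMI 1640 + 10% FBS; viability by CellTiter-Glo luminescence.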

[7] = Liver Microsome Stability Assay (rat); details: rat liver microsomes, with NADPH, 1.0 uM compound
Description: (§1) Stability of a compound was assessed in the presence of liver microsomes from various sources—mouse, rat, monkey and human liver microsomes. 1.0 uM compound, 0.4% DMSO in 0.1 M Potassium Phosphate with 1.0 mg/mL liver microsomes, were incubated at 37° C. with or without 1 mM NADPH. The samples were quenched at 0, and 30 minutes.

[8] = Liver Microsome Stability Assay (mouse); details: mouse liver microsomes, with NADPH, 1.0 uM compound
Description: as §1

[9] = Liver Microsome Stability Assay (human); details: human liver microsomes, with NADPH, 1.0 uM compound
Description: as §1

[10] = Liver Microsome Stability Assay (monkey); details: monkey liver microsomes, with NADPH, 1.0 uM compound
Description: as §1

| pIC50 [1] | pIC50 [2] | pIC50 [3] | pIC50 [4] | pEC50 ([5]; Homo sapiens, NCI-H929, 48 h) | pEC50 ([6]; Homo sapiens, U-266, 48 h) | Liver Microsome Stability (Multiple Species): Rat - % Remaining after 30 min w/NADPH [7] | Liver Microsome Stability (Multiple Species): Mouse - % Remaining after 30 min w/NADPH [8] | Liver Microsome Stability (Multiple Species): Human - % Remaining after 30 min w/NADPH [9] | Liver Microsome Stability (Multiple Species): Monkey - % Remaining after 30 min w/NADPH [10] | pEC50 ([5]; 48 hr) | pEC50 ([6]; 48 hr) | Compound | 24 hr Dox Inducible TNFaFLGluc 293FRT/TO: TNF/PD1 [2] | 24 hr Dox Inducible IL2FLGluc 293FRT/TO: IL2/PD1 [4] |
| --- | --- | --- | --- | --- | --- | --- | --- | --- | --- | --- | --- | --- | --- | --- |
| 7.79 | 6.66 | 7.47 | 7.26 | 6.37 | < 4.60 | 0.29% | 0.76% | 0.08% | 0.1% |  |  | CC(=O)NCc1ccc(N2CCC[C@@H]2c2csc(NC(=O)c3cccn3Cc3ccncc3)n2)cc1 [Compound A45, (R)-N-(4-(1-(4-(acetamidomethyl)phenyl)pyrrolidin-2-yl)thiazol-2-yl)-1-(pyridin-4-ylmethyl)-1H-pyrrole-2-carboxamide] | 13.4 | 3.4 |
| 8.52 | 7.28 | 8.19 | 8.39 | 7.10 | < 4.60 | 9.73% | 4.16% | 3.12% | 2.39% |  |  | CC(=O)Nc1ccc(N2CCC[C@@H]2c2csc(NC(=O)c3cccn3Cc3ccncc3)n2)cc1 [Compound A46, (R)-N-(4-(1-(4-acetamidophenyl)pyrrolidin-2-yl)thiazol-2-yl)-1-(pyridin-4-ylmethyl)-1H-pyrrole-2-carboxamide] | 17.3 | 1.4 |
| 7.36 | 6.26 | 7.08 | 7.08 | 5.92 | < 4.60 | 1.17% | 0.02% | 1.82% | 0.06% |  |  | CC(=O)N(C)c1ccc(N2CCC[C@@H]2c2csc(NC(=O)c3cccn3Cc3ccncc3)n2)cc1 [Compound A47] | 12.7 | 1.9 |

More lines, now with the values behind:

| Compound | pIC50 [1] | pIC50 [2] | pIC50 [3] | pIC50 [4] | pEC50 ([5]; Homo sapiens, NCI-H929, 48 h) | pEC50 ([6]; Homo sapiens, U-266, 48 h) | Liver Microsome Stability (Multiple Species): Rat - % Remaining after 30 min w/NADPH [7] | Liver Microsome Stability (Multiple Species): Mouse - % Remaining after 30 min w/NADPH [8] | Liver Microsome Stability (Multiple Species): Human - % Remaining after 30 min w/NADPH [9] | Liver Microsome Stability (Multiple Species): Monkey - % Remaining after 30 min w/NADPH [10] | pEC50 ([5]; 48 hr) | pEC50 ([6]; 48 hr) | 24 hr Dox Inducible TNFaFLGluc 293FRT/TO: TNF/PD1 [2] | 24 hr Dox Inducible IL2FLGluc 293FRT/TO: IL2/PD1 [4] |
| --- | --- | --- | --- | --- | --- | --- | --- | --- | --- | --- | --- | --- | --- | --- |
| COCc1ccc(N2CCC[C@@H]2c2csc(NC(=O)c3cccn3Cc3ccncc3)n2)cc1 [Compound A48, (R)-N-(4-(1-(4-(methoxymethyl)phenyl)pyrrolidin-2-yl)thiazol-2-yl)-1-(pyridin-4-ylmethyl)-1H-pyrrole-2-carboxamide] | 8.21 | 7.00 | 7.76 | 7.87 | 6.83 | < 4.60 | 0.64% | 4.71% | 2.91% | 1.44% |  |  | 16.4 | 2.2 |
| CNCc1ccc(N2CCC[C@@H]2c2csc(NC(=O)c3cccn3Cc3ccncc3)n2)cc1 [Compound A49, (R)-N-(4-(1-(4-((methylamino)methyl)phenyl)pyrrolidin-2-yl)thiazol-2-yl)-1-(pyridin-4-ylmethyl)-1H-pyrrole-2-carboxamide] | 6.11 | < 4.60 | 5.79 | 5.65 | 5.01 | 5.09 | 10.7% | 29.4% | 1.94% | 0.94% |  |  | >32.1 | 2.8 |
| O=C(Nc1nc([C@H]2CCCN2c2ccc(C3CCNCC3)cc2)cs1)c1cccn1Cc1ccncc1 [Compound A51, (R)-N-(4-(1-(4-(piperidin-4-yl)phenyl)pyrrolidin-2-yl)thiazol-2-yl)-1-(pyridin-4-ylmethyl)-1H-pyrrole-2-carboxamide] | 6.28 | 4.71 | 6.04 | 5.98 | 5.31 | 5.22 | 0.4% | 64.3% | 2.67% | 1.91% |  |  | 36.5 | 2 |
| Cc1cc(Cn2cccc2C(=O)Nc2nc([C@H]3CCCN3c3ccccc3)cs2)ccn1 [Compound A52, (R)-1-((2-methylpyridin-4-yl)methyl)-N-(4-(1-phenylpyrrolidin-2-yl)thiazol-2-yl)-1H-pyrrole-2-carboxamide] | 6.47 | 5.39 | 6.35 | 6.04 | 4.69 | < 4.60 | 0.63% | 3.47% | 1.11% | 0.33% |  |  | 11.9 | 2.7 |
| Cc1cnccc1Cn1cccc1C(=O)Nc1nc([C@H]2CCCN2c2ccccc2)cs1 [Compound A53, (R)-1-((3-methylpyridin-4-yl)methyl)-N-(4-(1-phenylpyrrolidin-2-yl)thiazol-2-yl)-1H-pyrrole-2-carboxamide] | 7.62 | 6.52 | 7.50 | 7.27 | 4.69 | < 4.60 | 0.63% | 3.47% | 1.11% | 0.33% |  |  | 12.7 | 2.3 |
| CC(=O)N1CCC(c2ccc(N3CCC[C@@H]3c3csc(NC(=O)c4cccn4Cc4ccncc4)n3)cc2)CC1 [Compound A55, (R)-N-(4-(1-(4-(1-acetylpiperidin-4-yl)phenyl)pyrrolidin-2-yl)thiazol-2-yl)-1-(pyridin-4-ylmethyl)-1H-pyrrole-2-carboxamide] | 7.71 | 6.37 | 7.38 | 7.24 | 6.17 | < 4.60 | 0.11% | 18.3% | 0.34% | 0.1% |  |  | 21.8 | 3 |
| O=C(Nc1nc([C@H]2CCCN2c2ccc(C(F)(F)F)cc2)cs1)c1cccn1Cc1ccnc(F)c1 [Compound A56, (R)-1-((2-fluoropyridin-4-yl)methyl)-N-(4-(1-(4-(trifluoromethyl)phenyl)pyrrolidin-2-yl)thiazol-2-yl)-1H-pyrrole-2-carboxamide] | 8.24 and 8.33 and 8.31 | 6.96 and 7.20 and 7.01 | 8.02 and 8.07 and 8.13 | 7.98 and 8.17 and 8.06 | 6.82 | < 4.60 | 48.3% and 54.8% | 81.1% and 81.8% | 43.9% and 46% | 27.3% and 25.8% | 6.83 and 6.78 | < 4.61 | 19.1 and 13.6 and 20 | 1.8 and 1.5 |
